In ChEMBL document CHEMBL1135965, “A novel dicyanotriterpenoid, 2-cyano-3,12-dioxooleana-1,9(11)-dien-28-onitrile, active at picomolar concentrations for inhibition of nitric oxide production” (Bioorg Med Chem Lett, 2002):

Species: Mus musculus
Experiment: Inhibitory activity against production of nitric oxide induced by interferon gamma in mouse macrophages
Format: functional, organism-based
For `CC1(C)CC[C@]2(C(=O)n3ccnc3)CC[C@]3(C)[C@H](C(=O)C=C4[C@@]5(C)C=C(C#N)C(=O)C(C)(C)[C@@H]5CC[C@]43C)[C@@H]2C1`, the IC50 was 0.014 nM.
With `CCCN(CCC)C(=O)[C@]12CCC(C)(C)CC1C1C(=O)C=C3[C@@]4(C)C=C(C#N)C(=O)C(C)(C)[C@@H]4CC[C@@]3(C)[C@]1(C)CC2` (stereo not given in full) the IC50 was 32.9 nM.
`CC1(C)CC[C@]2(C#N)CC[C@]3(C)C(C(=O)C=C4[C@@]5(C)C=C(C(=O)O)C(=O)C(C)(C)[C@@H]5CC[C@]43C)C2C1` (stereo not given in full) gave an IC50 of 1.68 nM.
For `CC1(C)CC[C@]2(C(=O)NN)CC[C@]3(C)C(C(=O)C=C4[C@@]5(C)C=C(C#N)C(=O)C(C)(C)[C@@H]5CC[C@]43C)C2C1` (stereo not given in full), the IC50 was 0.26 nM.
`CC1(C)CC[C@]2(C(=O)N3CCC(N4CCCCC4)CC3)CC[C@]3(C)C(C(=O)C=C4[C@@]5(C)C=C(C#N)C(=O)C(C)(C)[C@@H]5CC[C@]43C)C2C1` (stereo not given in full) was tested, and the IC50 was 1 nM.
`CCCNC(=O)[C@]12CCC(C)(C)CC1C1C(=O)C=C3[C@@]4(C)C=C(C#N)C(=O)C(C)(C)[C@@H]4CC[C@@]3(C)[C@]1(C)CC2` (stereo not given in full) was tested, and the IC50 was 1.5 nM.
`CCCCCCNC(=O)[C@]12CCC(C)(C)CC1C1C(=O)C=C3[C@@]4(C)C=C(C#N)C(=O)C(C)(C)[C@@H]4CC[C@@]3(C)[C@]1(C)CC2` (stereo not given in full) gave an IC50 of 14.9 nM.
Work on `CC1(C)CC[C@]2(C(=O)NCc3ccccc3)CC[C@]3(C)C(C(=O)C=C4[C@@]5(C)C=C(C#N)C(=O)C(C)(C)[C@@H]5CC[C@]43C)C2C1` (stereo not given in full) yielded an IC50 of 9.2 nM.
With `CC1(C)CC[C@]2(C(=O)N3CCCC3)CC[C@]3(C)C(C(=O)C=C4[C@@]5(C)C=C(C#N)C(=O)C(C)(C)[C@@H]5CC[C@]43C)C2C1` (stereo not given in full) the IC50 was 0.8 nM.
`CC1(C)CC[C@]2(C(=O)OCC3CC3)CC[C@]3(C)C(C(=O)C=C4[C@@]5(C)C=C(C#N)C(=O)C(C)(C)[C@@H]5CC[C@]43C)C2C1` (stereo not given in full) showed an IC50 of 4.45 nM.
Work on `CC(=O)OC[C@H]1O[C@@H](OC(=O)[C@]23CCC(C)(C)CC2C2C(=O)C=C4[C@@]5(C)C=C(C#N)C(=O)C(C)(C)[C@@H]5CC[C@@]4(C)[C@]2(C)CC3)[C@H](OC(C)=O)[C@H](OC(C)=O)[C@@H]1OC(C)=O` (stereo not given in full) yielded an IC50 of 0.07 nM.
Compound `CC1(C)CC[C@]2(C(=O)Nc3ccccc3)CC[C@]3(C)C(C(=O)C=C4[C@@]5(C)C=C(C#N)C(=O)C(C)(C)[C@@H]5CC[C@]43C)C2C1` (stereo not given in full) has an IC50 of 28.6 nM.
In the case of `CC1(C)CC[C@]2(C(=O)N3CCOCC3)CC[C@]3(C)C(C(=O)C=C4[C@@]5(C)C=C(C#N)C(=O)C(C)(C)[C@@H]5CC[C@]43C)C2C1` (stereo not given in full), the IC50 is reported as 2.4 nM.
With `CC1(C)CC[C@]2(C(=O)OCc3ccccc3)CC[C@]3(C)C(C(=O)C=C4[C@@]5(C)C=C(C#N)C(=O)C(C)(C)[C@@H]5CC[C@]43C)C2C1` (stereo not given in full) the IC50 was 4.35 nM.
In the case of `CC1(C)CC[C@]2(C(N)=O)CC[C@]3(C)C(C(=O)C=C4[C@@]5(C)C=C(C#N)C(=O)C(C)(C)[C@@H]5CC[C@]43C)C2C1` (stereo not given in full), the IC50 is reported as 0.098 nM.
Work on `CN(C)C(=O)[C@]12CCC(C)(C)CC1C1C(=O)C=C3[C@@]4(C)C=C(C#N)C(=O)C(C)(C)[C@@H]4CC[C@@]3(C)[C@]1(C)CC2` (stereo not given in full) yielded an IC50 of 1.55 nM.
`CCCCCCCCOC(=O)[C@]12CCC(C)(C)CC1C1C(=O)C=C3[C@@]4(C)C=C(C#N)C(=O)C(C)(C)[C@@H]4CC[C@@]3(C)[C@]1(C)CC2` (stereo not given in full) was tested, and the IC50 was 60.4 nM.
Work on `CC1(C)CC[C@]2(C(=O)O[C@@H]3O[C@H](CO)[C@@H](O)[C@H](O)[C@H]3O)CC[C@]3(C)C(C(=O)C=C4[C@@]5(C)C=C(C#N)C(=O)C(C)(C)[C@@H]5CC[C@]43C)C2C1` (stereo not given in full) yielded an IC50 of 10.1 nM.
Work on `C=CCOC(=O)[C@]12CCC(C)(C)CC1C1C(=O)C=C3[C@@]4(C)C=C(C#N)C(=O)C(C)(C)[C@@H]4CC[C@@]3(C)[C@]1(C)CC2` (stereo not given in full) yielded an IC50 of 1.33 nM.
For `CNC(=O)[C@]12CCC(C)(C)CC1C1C(=O)C=C3[C@@]4(C)C=C(C#N)C(=O)C(C)(C)[C@@H]4CC[C@@]3(C)[C@]1(C)CC2` (stereo not given in full), the IC50 was 0.58 nM.
`CC1(C)CC[C@]2(C(=O)N3CCCCC3)CC[C@]3(C)C(C(=O)C=C4[C@@]5(C)C=C(C#N)C(=O)C(C)(C)[C@@H]5CC[C@]43C)C2C1` (stereo not given in full) was tested, and the IC50 was 0.95 nM.
Work on `CCCCOC(=O)[C@]12CCC(C)(C)CC1C1C(=O)C=C3[C@@]4(C)C=C(C#N)C(=O)C(C)(C)[C@@H]4CC[C@@]3(C)[C@]1(C)CC2` (stereo not given in full) yielded an IC50 of 6.65 nM.
In the case of `COC(=O)[C@]12CCC(C)(C)CC1C1C(=O)C=C3[C@@]4(C)C=C(C(=O)O)C(=O)C(C)(C)[C@@H]4CC[C@@]3(C)[C@]1(C)CC2` (stereo not given in full), the IC50 is reported as 9.55 nM.
In the case of `CCOC(=O)[C@]12CCC(C)(C)CC1C1C(=O)C=C3[C@@]4(C)C=C(C#N)C(=O)C(C)(C)[C@@H]4CC[C@@]3(C)[C@]1(C)CC2` (stereo not given in full), the IC50 is reported as 0.8 nM.
`CCOC(=O)[C@]12CCC(C)(C)CC1C1C(=O)C=C3[C@@]4(C)C=C(C(=O)O)C(=O)C(C)(C)[C@@H]4CC[C@@]3(C)[C@]1(C)CC2` (stereo not given in full) gave an IC50 of 7.93 nM.
Work on `CC1(C)CC[C@]2(C(=O)n3cccn3)CC[C@]3(C)C(C(=O)C=C4[C@@]5(C)C=C(C#N)C(=O)C(C)(C)[C@@H]5CC[C@]43C)C2C1` (stereo not given in full) yielded an IC50 of 12 nM.
For `COC(=O)[C@]12CCC(C)(C)C[C@H]1[C@H]1C(=O)C=C3[C@@]4(C)C=C(C#N)C(=O)C(C)(C)[C@@H]4CC[C@@]3(C)[C@]1(C)CC2` [BARDOXOLONE METHYL], the IC50 was 0.11 nM.
In the case of `CC1(C)CC[C@]2(C(=O)O)CC[C@]3(C)[C@H](C(=O)C=C4[C@@]5(C)C=C(C#N)C(=O)C(C)(C)[C@@H]5CC[C@]43C)[C@@H]2C1` [BARDOXOLONE], the IC50 is reported as 0.44 nM.
For `CC1(C)CC[C@]2(C#N)CC[C@]3(C)C(C(=O)C=C4[C@@]5(C)C=C(C#N)C(=O)C(C)(C)[C@@H]5CC[C@]43C)C2C1` (stereo not given in full) [CDDO-CN], the IC50 was 0.0035 nM.
In the case of `CC1(C)CC[C@]2(C(=O)O)CC[C@]3(C)C(=CC[C@@H]4[C@@]5(C)CC[C@H](O)C(C)(C)[C@@H]5CC[C@]43C)[C@@H]2C1` [OLEANOLIC_ACID], the IC50 is reported as over 40000 nM.
